# Assay results: ChEMBL document CHEMBL1201862, “PubChem BioAssay data set” (2004)
#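 Compound exposure: 48 hours, 5 concentrations, 96-well plates. The concentration for 50% growth inhibition is given as GI50.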 Activity calls are given as the source filed them. Rule as the data show it: active = GI50 up to about 1.1 µM and inactive = higher.
# What was measured:
# Assay in all cases: growth of human tumour cells (NCI), 48 h
# NCI-H460 = test system: NCI-H460
# SW-620 = test system: SW-620
# MOLT-4 = test system: MOLT-4
# SK-MEL-5 = test system: SK-MEL-5
# Hs-578T = test system: Hs-578T
# IGROV-1 = test system: IGROV-1
# CCRF-CEM = test system: CCRF-CEM
# OVCAR-3 = test system: OVCAR-3
# OVCAR-4 = test system: OVCAR-4
# HCT-116 = test system: HCT-116
# MDA-N = test system: MDA-N
# UACC-257 = test system: UACC-257
# T47D = test system: T47D
# NCI-H23 = test system: NCI-H23
# HL-60 = test system: HL-60
# SK-OV-3 = test system: SK-OV-3
# OVCAR-8 = test system: OVCAR-8
# TK-10 = test system: TK-10
# SK-MEL-2 = test system: SK-MEL-2
# BT-549 = test system: BT-549
# NCI-H522 = test system: NCI-H522
# 786-0 = test system: 786-0
# MDA-MB-231 = test system: MDA-MB-231
# SK-MEL-28 = test system: SK-MEL-28
# NCI/ADR-RES = test system: NCI/ADR-RES
# KM12 = test system: KM12
# OVCAR-5 = test system: OVCAR-5
# SNB-19 = test system: SNB-19
# RPMI-8226 = test system: RPMI-8226
# SF-539 = test system: SF-539
# CAKI-1 = test system: CAKI-1
# SF-268 = test system: SF-268
# UO-31 = test system: UO-31
# MDA-MB-435 = test system: MDA-MB-435
# HT-29 = test system: HT-29
# A549 = test system: A549
# Malme-3M = test system: Malme-3M
# HCC 2998 = test system: HCC 2998
# EKVX = test system: EKVX
# SNB-75 = test system: SNB-75
# A498 = test system: A498
# COLO 205 = test system: COLO 205
# MCF7 = test system: MCF7
# LOX IMVI = test system: LOX IMVI
# HCT-15 = test system: HCT-15
# PC-3 = test system: PC-3
# DU-145 = test system: DU-145
# SF-295 = test system: SF-295
# U-251 = test system: U-251
# HOP-92 = test system: HOP-92
# RXF 393 = test system: RXF 393
# SN12C = test system: SN12C
# HOP-62 = test system: HOP-62
# NCI-H226 = test system: NCI-H226
# UACC-62 = test system: UACC-62
# M14 = test system: M14
# ACHN = test system: ACHN
# K562 = test system: K562
# SR = test system: SR
compound,measurement,setting,value
CN(CCNC(=O)c1nn(-c2ccccc2)c2c1ccc1ccccc12)CCNC(=O)c1nn(-c2ccccc2)c2c1ccc1ccccc12,GI50,NCI-H460,1.41 µM (inactive)
same,GI50,SW-620,2.17 µM (inactive)
same,GI50,MOLT-4,0.38 µM (active)
same,GI50,SK-MEL-5,1.64 µM (inactive)
same,GI50,Hs-578T,2.14 µM (inactive)
same,GI50,IGROV-1,1.98 µM (inactive)
same,GI50,CCRF-CEM,2.9 µM (inactive)
same,GI50,OVCAR-3,1.71 µM (inactive)
same,GI50,OVCAR-4,3.39 µM (inactive)
same,GI50,HCT-116,1.53 µM (inactive)
same,GI50,MDA-N,1.75 µM (inactive)
same,GI50,UACC-257,1.71 µM (inactive)
same,GI50,T47D,2.41 µM (inactive)
same,GI50,NCI-H23,2.51 µM (inactive)
same,GI50,HL-60,1.95 µM (inactive)
same,GI50,SK-OV-3,2.09 µM (inactive)
same,GI50,OVCAR-8,1.79 µM (inactive)
same,GI50,TK-10,1.4 µM (inactive)
same,GI50,SK-MEL-2,1.86 µM (inactive)
same,GI50,BT-549,10.2 µM (inactive)
same,GI50,NCI-H522,2.04 µM (inactive)
same,GI50,786-0,1.67 µM (inactive)
same,GI50,MDA-MB-231,1.29 µM (inactive)
same,GI50,SK-MEL-28,1.7 µM (inactive)
same,GI50,NCI/ADR-RES,2.55 µM (inactive)
same,GI50,KM12,2.37 µM (inactive)
same,GI50,OVCAR-5,4.49 µM (inactive)
same,GI50,SNB-19,2.54 µM (inactive)
same,GI50,RPMI-8226,0.202 µM (active)
same,GI50,SF-539,1.66 µM (inactive)
same,GI50,CAKI-1,3.33 µM (inactive)
same,GI50,SF-268,2.38 µM (inactive)
same,GI50,UO-31,2.07 µM (inactive)
same,GI50,MDA-MB-435,1.97 µM (inactive)
same,GI50,HT-29,2.94 µM (inactive)
same,GI50,A549,2.94 µM (inactive)
same,GI50,Malme-3M,2.23 µM (inactive)
same,GI50,HCC 2998,1.53 µM (inactive)
same,GI50,EKVX,1.98 µM (inactive)
same,GI50,SNB-75,2.18 µM (inactive)
same,GI50,A498,2 µM (inactive)
same,GI50,COLO 205,1.54 µM (inactive)
same,GI50,MCF7,1.98 µM (inactive)
same,GI50,LOX IMVI,1.77 µM (inactive)
same,GI50,HCT-15,1.76 µM
same,GI50,PC-3,2.13 µM (inactive)
same,GI50,DU-145,4.85 µM (inactive)
same,GI50,SF-295,1.61 µM (inactive)
same,GI50,U-251,1.57 µM (inactive)
same,GI50,HOP-92,1.73 µM (inactive)
same,GI50,RXF 393,1.62 µM (inactive)
same,GI50,SN12C,1.88 µM (inactive)
same,GI50,HOP-62,1.43 µM (inactive)
same,GI50,NCI-H226,2.29 µM (inactive)
same,GI50,UACC-62,1.77 µM (inactive)
same,GI50,M14,1.78 µM (inactive)
same,GI50,ACHN,2.11 µM (inactive)
CC(=O)c1[nH]c(NC(C)C)c(C(=S)Nc2ccccc2)c1N,GI50,NCI-H460,31.8 µM (inactive)
same,GI50,SW-620,54.1 µM (inactive)
same,GI50,MOLT-4,37.2 µM (inactive)
same,GI50,SK-MEL-5,18.3 µM (inactive)
same,GI50,Hs-578T,36 µM (inactive)
same,GI50,K562,33.4 µM (inactive)
same,GI50,IGROV-1,26.4 µM (inactive)
same,GI50,CCRF-CEM,25.5 µM (inactive)
same,GI50,OVCAR-3,32.1 µM (inactive)
same,GI50,OVCAR-4,30.4 µM (inactive)
same,GI50,HCT-116,24.1 µM (inactive)
same,GI50,MDA-N,22.1 µM (inactive)
same,GI50,UACC-257,24 µM (inactive)
same,GI50,T47D,21.4 µM (inactive)
same,GI50,NCI-H23,36 µM (inactive)
same,GI50,HL-60,51.6 µM (inactive)
same,GI50,SK-OV-3,65.9 µM (inactive)
same,GI50,OVCAR-8,28.4 µM (inactive)
same,GI50,TK-10,40.8 µM (inactive)
same,GI50,SK-MEL-2,17.9 µM (inactive)
same,GI50,BT-549,30.5 µM (inactive)
same,GI50,NCI-H522,16.6 µM (inactive)
same,GI50,786-0,24.3 µM (inactive)
same,GI50,MDA-MB-231,22.3 µM (inactive)
same,GI50,SK-MEL-28,32.4 µM (inactive)
same,GI50,NCI/ADR-RES,68.5 µM (inactive)
same,GI50,KM12,29.6 µM (inactive)
same,GI50,OVCAR-5,61.8 µM (inactive)
same,GI50,SNB-19,27.8 µM (inactive)
same,GI50,RPMI-8226,0.059 µM (active)
same,GI50,SF-539,> 100 µM (inactive)
same,GI50,CAKI-1,32.9 µM (inactive)
same,GI50,SF-268,25.3 µM (inactive)
same,GI50,UO-31,20.5 µM (inactive)
same,GI50,MDA-MB-435,21.7 µM (inactive)
same,GI50,HT-29,38.8 µM (inactive)
same,GI50,A549,32.3 µM (inactive)
same,GI50,Malme-3M,25.7 µM (inactive)
same,GI50,HCC 2998,28.2 µM (inactive)
same,GI50,EKVX,37 µM (inactive)
same,GI50,SNB-75,> 100 µM (inactive)
same,GI50,A498,18.9 µM (inactive)
same,GI50,COLO 205,27.9 µM (inactive)
same,GI50,MCF7,19.5 µM (inactive)
same,GI50,LOX IMVI,19.1 µM (inactive)
same,GI50,HCT-15,26.9 µM
same,GI50,DU-145,26.7 µM (inactive)
same,GI50,SF-295,38.1 µM (inactive)
same,GI50,HOP-92,17.7 µM (inactive)
same,GI50,RXF 393,18.4 µM (inactive)
same,GI50,SN12C,27.9 µM (inactive)
same,GI50,HOP-62,38 µM (inactive)
same,GI50,NCI-H226,21.1 µM (inactive)
same,GI50,UACC-62,23.6 µM (inactive)
same,GI50,SR,23.7 µM (inactive)
same,GI50,M14,19.8 µM (inactive)
same,GI50,ACHN,33.3 µM (inactive)
